What follows are compounds tested against T1, Angiotensin-II-receptor (Rattus norvegicus, UniProt P25095) (assay: Angiotensin-II-receptor binding (rat lung homogenate, [^125 I]-angiotensin-II displacement)). Details: rat's lung homogenate; 50 pM [^125 I]-angiotensin-II; 60 minutes at 37° C.; pH 7.40.
T1 construct: The tissue (rat's lung) is homogenised in tris buffer; from tissue; host or cells: rat lung homogenate
T1 sequence (P25095 1-359): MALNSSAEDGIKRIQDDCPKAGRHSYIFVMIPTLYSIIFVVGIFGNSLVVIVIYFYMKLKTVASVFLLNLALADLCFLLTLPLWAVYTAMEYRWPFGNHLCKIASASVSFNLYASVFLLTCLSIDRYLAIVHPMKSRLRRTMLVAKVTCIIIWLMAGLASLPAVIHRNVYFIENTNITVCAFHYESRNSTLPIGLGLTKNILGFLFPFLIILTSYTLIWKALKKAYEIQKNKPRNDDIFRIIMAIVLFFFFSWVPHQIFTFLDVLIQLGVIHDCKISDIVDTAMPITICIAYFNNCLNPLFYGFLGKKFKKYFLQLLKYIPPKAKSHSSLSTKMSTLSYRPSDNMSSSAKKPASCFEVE
Protocol: The tissue (rat's lung) is homogenised in tris buffer (50 mMol Tris, 150 mMol NaCl, 5 mMol EDTA, pH 7.40) and centrifuged twice for 20 minutes each time at 20,000×g. The resulting pellet is resuspended in incubation buffer (50 mMol Tris, 5 mMol MgCl2, 0.2% BSA, pH 7.40) 1:75, based on the moist weight of the tissue. Each 0.1 ml of homogenate is incubated for 60 minutes at 37° C. with 50 pM [^125 I]-angiotensin-II (NEN, Dreieich, FRG) and increasing concentrations of the test substance in a total volume of 0.25 ml. The incubation is terminated by rapid filtration through glass fibre filter mats. The filters are each washed with 4 ml of ice cold buffer (25 mMol Tris, 2.5 mMol MgCl2, 0.1% BSA, pH 7.40). The bound radioactivity is measured in a gamma-counter. The corresponding IC50 value is determined from the dosage-activity curve.

| IC50 [nM] | Compound |
| --- | --- |
| 78 | CCCc1nc2c(C)cc(-c3nc4ccccc4n3C)cc2n1Cc1ccc(-c2ccccc2S(=O)(=O)NC(=O)c2ccccc2)cc1 [H] |
| 36 | CCc1nc2c(C)cc(-c3cn4c(n3)CCCC4)cc2n1Cc1ccc(-c2ccccc2S(=O)(=O)NC(=O)c2ccccc2)cc1 [I] |
| 13.9 | CCCCc1nc2c(C)cc(N3CCCS3(=O)=O)cc2n1Cc1ccc(-c2ccccc2S(=O)(=O)NC(=O)c2ccccc2)cc1 [J] |
| 73 | CCc1nc2c(C)cc(-c3cn4c(n3)CCCC4)cc2n1Cc1ccc(-c2ccccc2S(=O)(=O)NC(=O)NC2CCCCC2)cc1 [K] |

Further lines, the compound ahead of its results:

| Compound | IC50 [nM] |
| --- | --- |
| CCCc1nc2c(C)cc(-c3nc4ccccc4n3C)cc2n1Cc1ccc(-c2ccccc2C=C2SC(=O)NC2=O)cc1 [A] | 94 |
| CCCc1nc2c(C)cc(-c3nc4ccccc4n3C)cc2n1Cc1ccc(-c2ccccc2S(=O)(=O)O)cc1 [B] | 8 |
| CCc1nc2c(C)cc(-c3cn4c(n3)CCCC4)cc2n1Cc1ccc(-c2ccccc2S(=O)(=O)O)cc1 [C] | 3.4 |
| CCCc1nc2c(C)cc(-c3nc4ccccc4n3C)cc2n1Cc1ccc(-c2ccccc2NC(=O)C(F)(F)F)cc1 [D] | 40 |
| CCc1nc2c(C)cc(-c3cn4c(n3)CCCC4)cc2n1Cc1ccc(-c2ccccc2NC(=O)C(F)(F)F)cc1 [E] | 28 |
| CCCc1nc2c(C)cc(-c3nc4ccccc4n3C)cc2n1Cc1ccc(-c2ccccc2S(=O)(=O)NC(=O)NCc2ccc(OC)cc2)cc1 [F] | 110 |
| CCCc1nc2c(C)cc(-c3nc4ccccc4n3C)cc2n1Cc1ccc(-c2ccccc2S(=O)(=O)NC(=O)NC2CCCCC2)cc1 [G] | 310 |
